Laboratory results as given in PMC8286817, “Identifying SARS-CoV-2 antiviral compounds by screening for small molecule inhibitors of Nsp14 RNA cap methyltransferase” (Biochemical Journal, 2021).
Structures can show the parent of a compound that is named as a salt. Where two headings read alike, the source gives them in different places. Peptide text beside a SMILES is read from it. * marks the point of attachment. Cbz = O=C(OCc1ccccc1)*

Columns and labels:
[1] = molecular target: T1, SARS-CoV-2 nsp14 guanine-N7 methyltransferase (Severe acute respiratory syndrome coronavirus 2, UniProt P0DTD1); format: biochemical
[2] = molecular target: T1, SARS-CoV-2 nsp14 guanine-N7 methyltransferase; assay: biochemical; format: biochemical; settings: for Km: read-out: Km (Michaelis constant) of substrate for nsp14

Compound	Z-Score in primary screen [1]	other results
CC(N)c1cccc(Cl)c1Cl.Cl (racemic) [(±)-2,3-Dichloro-alpha-methylbenzylamine hydrochloride]	3.186	
C[C@@H]1O[C@H](C[N+](C)(C)C)C[C@H]1O.[Cl-] (racemic) [(±)-Muscarine chloride]	3.736	
CCCCC[C@H](O)/C=C/C=C\C/C=C\C=C\[C@@H](O)CCCC(=O)O [5(S),15(S)-DIHETE]	3.436	
Br.NC1CCc2cc(O)c(O)cc2C1 (stereo not shown) [6,7-ADTN hydrobromide]	3.690	
CCC(Sc1nnc2c(n1)[nH]c1ccccc12)C(=O)N1c2ccccc2Sc2ccccc21 (stereo not shown) [10-[2-(5H-[1,2,4]triazino[5,6-b]indol-3-ylsulfanyl)butanoyl]-10H-phenothiazine]	5.999	
C1=C2CCCN[C@H]2[C@@H]2C[C@H]1[C@H]1CCCCN1C2 [Aloperine]	6.366	
C[C@@H]1CC[C@H]2[C@@H](C)C(=O)O[C@@H]3O[C@@]4(C)CC[C@@H]1[C@]32OO4 [Artemisisin]	2.850	
CCCCOc1ccc(CC(=O)NO)cc1 [Bufexamac]	5.383	
CCCCNc1cc(C(=O)O)cc(S(N)(=O)=O)c1Oc1ccccc1 [Bumetanide]	3.246	
CCCCN1CCCCC1C(=O)Nc1c(C)cccc1C (stereo not shown) [Bupivacaine]	3.673	
C[C@H](N)C(=O)N1C[C@H](CCCB(O)O)[C@](N)(C(=O)O)C1 [CB-1158 (dihydrochloride)]	4.540	
CC(C[N+](C)(C)C)OC(N)=O (stereo not drawn) [Carbamyl-beta-methylcholine]	3.385	
Cc1c(C(=O)O)c(O)cc2c1C(=O)c1c(O)c([C@@H]3O[C@H](CO)[C@@H](O)[C@H](O)[C@H]3O)c(O)c(O)c1C2=O [Carminic acid]	3.060	
CCn1nc(C(=O)O)c(=O)c2cc3c(cc21)OCO3 [Cinoxacin]	3.126	
c1ccc(CNc2nc(NCc3ccccc3)c3ccccc3n2)cc1 [DBeQ]	4.776	
c1ccc2c(c1)N=C(N1CCNCC1)c1ccccc1N2 [DREADD agonist 21]	3.333	
CNCCCN1c2ccccc2CCc2ccccc21 [Desipramine hydrochloride]	4.460	
COc1ccc2c(c1)[C@]13CCCC[C@@H]1[C@H](C2)N(C)CC3 [Dextromethorphan]	3.036	
O=c1c2ccccc2[se]n1-c1ccccc1 [Ebselen]	5.010	
CCC1(C)CC(=O)NC1=O (stereo not shown) [Ethosuximide]	3.595	

Compound	Z-Score in primary screen [1]	other results
CC(Cc1ccc(O)cc1)NCC(O)c1cc(O)cc(O)c1 (stereo not shown) [Fenoterol hydrobromide]	3.275	
CC(C)C(=O)Nc1ccc([N+](=O)[O-])c(C(F)(F)F)c1 [Flutamide]	3.970	
Nc1nc2c(ncn2[C@@H]2O[C@H](COP(=O)(O)OP(=O)(O)OP(=O)(O)O)[C@@H](O)[C@H]2O)c(=O)[nH]1 [GTP]		Km [2]: 301 ± 110 µM
Nc1nc2c(ncn2[C@@H]2O[C@H](COP(=O)(O)OP(=O)(O)OP(=O)(O)OC[C@H]3O[C@@H](n4cnc5c(N)ncnc54)[C@H](O)[C@@H]3O)[C@@H](O)[C@H]2O)c(=O)[nH]1 [GpppA]		Km [2]: 114 ± 21 µM
C[C@]12CCC(=O)C=C1CC[C@@H]1[C@@H]2[C@@H](O)C[C@@]2(C)[C@H]1CC[C@]2(O)C(=O)CO [Hydrocortisone]	4.062	
COc1cc2c(cc1OC)CC(=O)N(CCCN(C)C[C@H]1Cc3cc(OC)c(OC)cc31)CC2 [Ivabradine]	2.786	
CCN1C[C@]2(C)CC[C@H](O)[C@]34C1[C@@H](C[C@H]23)[C@@]1(O)C[C@H](OC)[C@H]2C[C@@H]4[C@@H]1[C@H]2O [Karakoline]	3.794	
Cl.Cl.Cl.Ic1ccc(N2CCN(Cc3c[nH]c4ncccc34)CC2)cc1 [L-750,667 trihydrochloride]	3.788	
Nc1nc(OCc2cc(Br)cs2)c2[nH]cnc2n1 [Lomeguatrib]	2.697	IC50 [2]: 59.8 µM
CC(C)[C@H](NC(=O)OCc1ccccc1)C(=O)N[C@H](C=O)Cc1ccccc1 [MDL 28170] (Cbz-Val-Phe-aldehyde)	3.310	
CNC[C@H](O)[C@@H](O)[C@H](O)[C@H](O)CO [Meglumine]	3.529	
CC1(C)CNc2cc(NC(=O)c3cccnc3NCc3ccncc3)ccc21 [Motesanib]	3.875	
O=c1c(O)c(-c2cc(O)c(O)c(O)c2)oc2cc(O)cc(O)c12 [Myricetin]	6.539	
CC(COc1ccc(/C=C/c2ccccc2)cc1)[N+](C)(C)C.[I-] (stereo not drawn) [N,N,N-trimethyl-1-(4-trans-stilbenoxy)-2-propylammonium iodide]	3.028	
CNCCc1ccc(O)c(O)c1.Cl [N-Methyldopamine hydrochloride]	3.906	
COc1ccc(C2=N[C@H](c3ccc(Cl)cc3)[C@H](c3ccc(Cl)cc3)N2C(=O)N2CCNC(=O)C2)c(OC(C)C)c1 [Nutlin (3b)]	4.552	
O=C(O)CCCCCCC(=O)O [Octanedioic acid]	3.256	
N#Cc1ccc(N2N=C3c4ccc(C(=O)O)cc4CC[C@@H]3[C@@H]2C2CCCC2)cc1Cl [PF-03882845]	5.080	
CCCN1C[C@H](CSC)C[C@@H]2c3cccc4[nH]cc(c34)C[C@H]21 [Pergolide methanesulfonate]	3.690	
O=C1NC(=O)C(c2ccccc2)(c2ccccc2)N1 [Phenytoin sodium]	3.651	

Compound	Z-Score in primary screen [1]	other results
CCCCCCCCCCCCCC(=O)O[C@@H]1[C@@H](C)[C@@]2(O)[C@@H](C=C(CO)C[C@]3(O)C(=O)C(C)=C[C@@H]23)[C@@H]2C(C)(C)[C@]12OC(C)=O [Phorbol 12-myristate 13-acetate]	7.036	
CN1CCc2cc(Cl)c(O)cc2[C@@H](c2ccccc2)C1.Cl [R(+)-SCH-23390 hydrochloride]	3.847	
COc1ccc(CCNC[C@H](O)c2ccc(O)cc2)cc1OC [R(-)-Denopamine]	5.027	
Cc1cncc(CN2CCC(=C3c4ccc(Cl)cc4CCc4cccnc43)CC2)c1.O=C(O)/C=C/C(=O)O [Rupatadine Fumarate]	3.745	
C[n+]1ccccc1CC(=O)c1ccc(Br)cc1.[I-] [S 24795]	3.557	
Nc1ncnc2c1ncn2C1CCCO1 (stereo not shown) [SQ 22536]	3.378	
Cl.NC1CCN(c2cccc(Cl)n2)CC1 [SR 57227A]	4.099	
NC(=O)C(=O)O [Sodium Oxamate]	3.379	
CCN(CC)CC.Nc1ncnc2c1ncn2[C@@H]1O[C@@H]2COP(O)(=S)O[C@H]2[C@H]1O (stereo partly shown) [Sp-cAMPS triethylamine]	3.048	
C[N+]1(C)CCC[C@H]1C(=O)[O-].Cl [Stachydine hydrochloride]	2.622	
O=C(CCCN1CCC(O)(c2cccc(C(F)(F)F)c2)CC1)c1ccc(F)cc1 [Trifluperidol]	5.671	IC50 [2]: 12.9 µM
CC(C)(C)c1cc(C=C(C#N)C#N)cc(C(C)(C)C)c1O [Tyrphostin A9]	3.261	
Brc1c(NC2=NCCN2)ccc2nccnc12 [UK 14,304]	3.074	
NC(N)=NCc1cccc(I)c1.NC(N)=NCc1cccc(I)c1.O=S(=O)(O)O [m-Iodobenzylguanidine hemisulfate]	4.530	
Nc1ccc(C(=O)O)cc1 [p-Aminobenzoic acid]	2.479	
Nc1ncnc2c1ncn2[C@@H]1O[C@H](C[C@@H](N)CC[C@H](N)C(=O)O)[C@@H](O)[C@H]1O [sinefungin]		Inhibition of nsp14 activity (HTRF signal) [2]: inhibited nsp14 activity in a dose-dependent manner
Bioymifi	3.204	
Inauhzin	3.833	IC50 ([2]; read-out: Normalised HTRF50 (inhibition of nsp14 methyltransferase activity)): 23 µM
